Results taken from US12590093B2, “Indolo[2′,3′:3,4]pyrido[2,1-b]quinazoline compound and use thereof” (INSTITUTE OF MEDICINAL BIOTECHNOLOGY CHINESE ACADEMY OF …, priority 2019, dated 2026).

Columns and labels:
ABCA1 [1] = test: ABCA1 up-regulation, luciferase reporter in ABCA1P-LUC HepG2 cells; assay type: cell-based; details: Homo sapiens, 18 h, maximum up-regulation fold of luciferase activity versus DMSO, read-out: ABCA1 max
Method: Experiments were conducted to detect whether the compounds of the disclosure can pharmacologically up-regulate the expression of ABCA1 and SR-BI. Firstly, ABCA1P-LUC HepG2 cells or SR-BI-LUC HepG2 cells in logarithmic growth phase were digested, diluted in cell culture medium, and counted. Cells were seeded into 96-well plates at a density of 5×10^5/ml (100 μL of the single-cell suspension per well). After cells fully adhered (about 6 h), the medium containing 10% FBS was removed, and the cells were gently washed with PBS. Serum free MEM-EBSS medium (200 μL per test well) and 2 μL of the compounds to be tested (at a final concentration of 10 μg/mL) were added to each test well, and meanwhile, DMSO at a corresponding concentration was added to the control well. After 18-24 h, the medium was removed. Cell Luciferase activity was measured by a method as described in the Luciferase Assay System. By optimizing the final concentration of DMSO, the treatment time of the compounds on the cells and the number of cells seeded into each well during the screening, the final screening conditions were determined as follows: each well is seeded with 5×10^4 cells, DMSO is added at a final concentration of 1%, and the sample is treated for 18 h.
The ratio of change of luciferase activity is calculated with the following formula: Ratio of change (%)=A/B×100;
wherein A is the luciferase activity (RLU) measured after the compound to be tested is added, and B is the luciferase activity (RLU) measured after the blank control (DMSO) is added. The luciferase activity of cells in each well was measured, and the dose-effect relationship between the concentration of the compound and the ratio of change of the luciferase activity was determined to calculate the EC50.

ABCA1 [2] = test: as above; assay type: cell-based; details: co-incubated with MK886, GW9662, GSK3787 or GGPP

Compound: c1ccc2c(c1)CN1CCc3c([nH]c4ccccc34)C1=N2 [TR3, 5,7,8,13-tetrahydroindolo[2′,3′:3,4]pyrido[2,1-b]quinazoline]
- maximal fold induction (ABCA1 [1]): 2.26
- up-regulating transcription activity of ABCA1 when co-incubated with nuclear receptor inhibitor (ABCA1 [2]): significantly inhibited
